According to ChEMBL document CHEMBL1121760, “Methotrexate analogues. 14. Synthesis of new gamma-substituted derivatives as dihydrofolate reductase inhibitors and potential anticancer agents” (1981):

Assays:
L1210 = test: Growth inhibitory activity against L1210 mouse leukemia cell line; type: functional; conditions: read-out: ID50 (the source's name)
[1] = molecular target: Dihydrofolate reductase (Lactobacillus casei) (UniProt P00381); conditions: Lacticaseibacillus casei
Description: Compound was tested for inhibition of Lactobacillus casei dihydrofolate reductase using competitive [3H]MTX binding assay

[2] = molecular target: Dihydrofolate reductase (Lactobacillus casei) (UniProt P00381); conditions: Lacticaseibacillus casei; remark: listed apart in the source
Description: Compound was tested for inhibition of Lactobacillus casei dihydrofolate reductase using spectrophotometric assay at 340 nm

[3] = molecular target: T1, Dihydrofolate reductase (Mus musculus) (UniProt P00375); conditions: L1210
T1 sequence (whole entry): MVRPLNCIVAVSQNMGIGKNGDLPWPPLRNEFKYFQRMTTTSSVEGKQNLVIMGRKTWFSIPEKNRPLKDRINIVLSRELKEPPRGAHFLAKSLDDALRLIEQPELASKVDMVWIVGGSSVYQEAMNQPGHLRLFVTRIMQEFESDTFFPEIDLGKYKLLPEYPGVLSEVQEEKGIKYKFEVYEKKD
Description: Compound was tested for inhibition of L1210 dihydrofolate reductase by competitive [3H]MTX binding assay in L1210 mouse leukemia cell lines

Sequence of Dihydrofolate reductase (Lactobacillus casei) (P00381 whole entry): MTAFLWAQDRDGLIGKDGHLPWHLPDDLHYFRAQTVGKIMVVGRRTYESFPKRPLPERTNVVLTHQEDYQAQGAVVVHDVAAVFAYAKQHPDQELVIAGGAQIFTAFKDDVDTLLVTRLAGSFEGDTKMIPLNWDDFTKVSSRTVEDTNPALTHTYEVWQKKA

With `CN(Cc1cnc2nc(N)nc(N)c2n1)c1ccc(C(=O)NC(CCC(=O)NCc2ccccc2)C(=O)O)cc1` (stereo not given) as the compound, how does the IC50 (L1210) read?
The IC50 was 30 nM.

With `CN(Cc1cnc2nc(N)nc(N)c2n1)c1ccc(C(=O)NC(CCC(=O)OC(C)(C)C)C(=O)O)cc1` (stereo not given) as the compound, how does the ID50 [1] read?
Its ID50 is 12 nM.

What about the IC50 (L1210) of the same compound?
Its IC50 is 20 nM.

And the ID50 [2]?
The ID50 was 25 nM.

And the ID50 [3]?
Its ID50 is 2.9 nM.

Which results are given for `COC(=O)C(CCC(=O)OC(C)(C)C)NC(=O)c1ccc(N(C)Cc2cnc3nc(N)nc(N)c3n2)cc1` (stereo not given)?
ID50 [1]: 3900 nM; IC50 (L1210): 4900 nM; ID50 [2]: 330 nM; ID50 [3]: 11 nM

Which ID50 [1] does the source give for `CCCCNC(=O)CCC(NC(=O)c1ccc(N(C)Cc2cnc3nc(N)nc(N)c3n2)cc1)C(=O)O` (stereo not given) here?
Its ID50 is 36 nM.

And the IC50 (L1210)?
The IC50 was 90 nM.

And the ID50 [2]?
The ID50 was 53 nM.

And the ID50 [3]?
The ID50 was 3.3 nM.

With `CCCCNC(=O)CCC(NC(=O)c1ccc(N(C)Cc2cnc3nc(N)nc(N)c3n2)cc1)C(=O)OCc1ccccc1` (stereo not given) as the compound, how does the ID50 [1] read?
Its ID50 is 250 nM.

Which ID50 [1] does the source give for `CN(Cc1cnc2nc(N)nc(N)c2n1)c1ccc(C(=O)NC(CCC(=O)O)C(=O)OC(C)(C)C)cc1` (stereo not given) here?
Its ID50 is 210 nM.

What about the IC50 (L1210) of the same compound?
Its IC50 is 5200 nM.

And the ID50 [2]?
Its ID50 is 36 nM.

And the ID50 [3]?
Its ID50 is 35 nM.

For `COC(=O)CCC(NC(=O)c1ccc(N(C)Cc2cnc3nc(N)nc(N)c3n2)cc1)C(=O)OC(C)(C)C` (stereo not given), which ID50 [1] is on record?
Its ID50 is 2200 nM.

And the IC50 (L1210)?
Its IC50 is 9700 nM.

And the ID50 [2]?
The ID50 was 200 nM.

And the ID50 [3]?
The ID50 was 19 nM.

`CN(Cc1cnc2nc(N)nc(N)c2n1)c1ccc(C(=O)N[C@@H](CCC(=O)O)C(=O)O)cc1` [METHOTREXATE] was tested. Which IC50 (L1210) did it give?
The IC50 was 10 nM.

Which results are given for `CN(Cc1cnc2nc(N)nc(N)c2n1)c1ccc(C(=O)NC(CCC(=O)NN)C(=O)O)cc1` (stereo not given)?
ID50 [1]: 13 nM; IC50 (L1210): 20 nM; ID50 [2]: 2.1 nM; ID50 [3]: 12 nM

What does the source list for `CN(Cc1cnc2nc(N)nc(N)c2n1)c1ccc(C(=O)NC(CCC(=O)NN)C(=O)OC(C)(C)C)cc1` (stereo not given)?
ID50 [1]: 2200 nM; IC50 (L1210): 11000 nM; ID50 [2]: 170 nM
